Results on 7 compounds are retold here after US4824862A, “3-phenyl-2-styrylpyrrolidines, preparation and use thereof” (BASF Aktiengesellschaft, priority 1987, dated 1989).

Format in all cases: biochemical
The test system of assay [1] is Serotonin uptake (3H-serotonin, cortex synaptosomes). Briefly: Inhibition of serotonin uptake in rat brain synaptosomes (cortex). The note with it: 37° C., read-out: Inhibition of neurotransmitter uptake in synaptosomes, Serotonin IC 50. The source says: (§1) The mode of action of a group of therapeutically frequently used antidepressants (for example tricyclic antidepressants) include the inhibition of the neuronal uptake of transmitter substances (norepinephrine, dopamine, serotonin). This property is utilized in biological test models to characterize potential antidepressants.
(§2) The following method was used: Inhibition of neurotransmitter uptake in rat brain synaptosomes
(§3) Hippocampus, corpus striatum and cortex of rat brains were dissected out and homogenized in 0.32M sucrose solution. Differential centrifugation gave synaptosomes which were suspended in buffer solution. Synaptosomes are capable of actively taking up added neurotransmitter substances (for example norepinephrine, dopamine, serotonin) from the surrounding medium. With the aid of uptake inhibitors it is possible to counteract this process to a degree which depends on the concentration. The synaptosomes were mixed with the test substances in various concentrations and then incubated at 37° C. with ^3 H-norepinephrine (hippocampus), ^3 H-dopamine (corpus striatum) and ^3 H-serotonin (cortex). The substrate concentration was about […]. The uptake was determined by dilution with ice-cold buffer solution; thereafter the synaptosomes were separated off by centrifugation, and the ^3 H activity was measured in the sediment. A blank value was determined by incubating at 0° C.
(§4) The median inhibitory concentration (IC 50) was calculated from the inhibitor values found for the various inhibitor concentrations by comparison with the blank test by linear regression following logit-log conversion.

Assay [2] concerns Norepinephrine uptake (3H-norepinephrine, hippocampus synaptosomes). The assay is described as follows: Inhibition of norepinephrine uptake in rat brain synaptosomes (hippocampus). Particulars: for IC50: rat hippocampus synaptosomes, 3H-norepinephrine, 37° C., read-out: Inhibition of neurotransmitter uptake in synaptosomes, Norepinephrine IC 50.
Source text: as §1, §2, §3, §4

Assay [3] has as its system Dopamine uptake (3H-dopamine, corpus striatum synaptosomes). The assay is described as follows: Inhibition of dopamine uptake in rat brain synaptosomes (corpus striatum). The note with it: for IC50: rat corpus striatum synaptosomes, 3H-dopamine, 37° C., read-out: Inhibition of neurotransmitter uptake in synaptosomes, Dopamine IC 50.
Source text: as §1, §2, §3, §4

In the case of `CCCN1CC[C@@H](c2ccccc2)[C@H]1/C=C/c1ccccc1` (relative stereo) [Example 3 cis, cis-3-phenyl-2-trans-styryl-N-n-propylpyrrolidine], in assay [1], the IC50 is greater than 1000 nM.

Regarding `CCN1CC[C@@H](c2ccccc2)[C@@H]1/C=C/c1ccccc1` (relative stereo) [Example 2 trans, trans-3-phenyl-2-trans-styryl-N-ethylpyrrolidine], the “potency of inhibition of noradrenaline uptake compared with imipramine, in words” value in assay [2] is recorded as “appreciably exceeded by the compounds according to the invention”. Besides, the IC50 is 5.5 nM in assay [2], greater than 1000 nM in assay [1] and 23 nM in assay [3].

Regarding `CN1CC[C@@H](c2ccccc2)[C@@H]1/C=C/c1ccccc1` (relative stereo) [Example 1 trans, trans-3-phenyl-2-trans-styryl-N-methylpyrrolidine], in assay [2], the “potency of inhibition of noradrenaline uptake compared with imipramine, in words” value is reported as “appreciably exceeded by the compounds according to the invention”. In addition, the IC50 is 7.3 nM in assay [2], greater than 1000 nM in assay [1] and 92 nM in assay [3].

For `CCN1CC[C@@H](c2ccccc2)[C@H]1/C=C/c1ccccc1` (relative stereo) [Example 2 cis, cis-3-phenyl-2-trans-styryl-N-ethylpyrrolidine], the IC50 was 43 nM in assay [2], greater than 1000 nM in assay [1] and 180 nM in assay [3].

Take `CN1CC[C@@H](c2ccccc2)[C@H]1/C=C/c1ccccc1` (relative stereo) [Example 1 cis, cis-3-phenyl-2-trans-styryl-N-methylpyrrolidine]: the IC50 in assay [2] is 29 nM; in assay [1], greater than 1000 nM; in assay [3], 120 nM.

Turning to `CCCN1CC[C@@H](c2ccccc2)[C@@H]1/C=C/c1ccccc1` (relative stereo) [Example 3 trans, trans-3-phenyl-2-trans-styryl-N-n-propylpyrrolidine], the IC50 in assay [2] is 160 nM; in assay [1], greater than 1000 nM; in assay [3], 400 nM.

`CN(C)CCCN1c2ccccc2CCc2ccccc21` [Imipramine, reference compound]: the IC50 in assay [2] was 14 nM; in assay [1], 130 nM; in assay [3] it was greater than 1000 nM. In addition, the “inhibition of dopamine uptake, in words” value in assay [3] (qualitative statement) is given as “not possessed by imipramine”.
